ChEMBL document CHEMBL1201862, “PubChem BioAssay data set” (2004)
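Exposure lasted 48 hours, with cells grown in 96-well plates and compounds tested at five concentrations. The concentration for 50% growth inhibition is given as GI50.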 Activity calls are given as the source filed them. Rule as the data show it: active = GI50 up to about 1.1 µM and inactive = higher.

Key:
Assay in all cases: inhibition of tumour cell growth, NCI panel, 48 h
[1] = test system: 786-0
[2] = test system: A498
[3] = test system: A549
[4] = test system: ACHN
[5] = test system: CAKI-1
[6] = test system: CCRF-CEM
[7] = test system: COLO 205
[8] = test system: DMS-114
[9] = test system: EKVX
[10] = test system: HCC 2998
[11] = test system: HCT-116
[12] = test system: HCT-15
[13] = test system: HL-60
[14] = test system: HOP-62
[15] = test system: HT-29
[16] = test system: IGROV-1
[17] = test system: K562
[18] = test system: KM-20L2
[19] = test system: KM12
[20] = test system: LOX IMVI
[21] = test system: M14
[22] = test system: M19-MEL
[23] = test system: MOLT-4
[24] = test system: Malme-3M
[25] = test system: NCI-H226
[26] = test system: NCI-H23
[27] = test system: NCI-H460
[28] = test system: NCI-H522
[29] = test system: OVCAR-3
[30] = test system: OVCAR-4
[31] = test system: OVCAR-5
[32] = test system: OVCAR-8
[33] = test system: RPMI-8226
[34] = test system: RXF 393
[35] = test system: SF-268
[36] = test system: SF-295
[37] = test system: SF-539
[38] = test system: SK-MEL-28
[39] = test system: SK-MEL-2
[40] = test system: SK-MEL-5
[41] = test system: SK-OV-3
[42] = test system: SN12C
[43] = test system: SNB-19
[44] = test system: SNB-75
[45] = test system: SNB-78
[46] = test system: SR
[47] = test system: SW-620
[48] = test system: TK-10
[49] = test system: U-251
[50] = test system: UACC-257
[51] = test system: UACC-62
[52] = test system: UO-31
[53] = test system: BT-549
[54] = test system: DU-145
[55] = test system: HOP-92
[56] = test system: Hs-578T
[57] = test system: MCF7
[58] = test system: MDA-MB-231
[59] = test system: MDA-MB-435
[60] = test system: MDA-N
[61] = test system: NCI/ADR-RES
[62] = test system: PC-3
[63] = test system: T47D

CN(C)C(=S)/N=c1\ss/c(=N\C(=S)N(C)C)n1C1CCCCC1
GI50 [1]: > 100 µM (inactive)
GI50 [2]: > 100 µM (inactive)
GI50 [3]: > 100 µM (inactive)
GI50 [4]: > 100 µM (inactive)
GI50 [5]: > 100 µM (inactive)
GI50 [6]: 32.7 µM (inactive)
GI50 [7]: 30.8 µM (inactive)
GI50 [8]: 0.452 µM (active)
GI50 [9]: > 100 µM (inactive)
GI50 [10]: > 100 µM (inactive)
GI50 [11]: > 100 µM (inactive)
GI50 [12]: > 100 µM
GI50 [13]: 69 µM (inactive)
GI50 [14]: > 100 µM (inactive)
GI50 [15]: 0.458 µM (active)
GI50 [16]: > 100 µM (inactive)
GI50 [17]: 28.1 µM (inactive)
GI50 [18]: > 100 µM (inactive)
GI50 [19]: > 100 µM (inactive)
GI50 [20]: 86.3 µM (inactive)
GI50 [21]: > 100 µM (inactive)
GI50 [22]: 0.524 µM (active)
GI50 [23]: 80.2 µM (inactive)
GI50 [24]: > 100 µM (inactive)
GI50 [25]: > 100 µM (inactive)
GI50 [26]: 63.2 µM (inactive)
GI50 [27]: 0.515 µM (active)
GI50 [28]: 25.5 µM (inactive)
GI50 [29]: > 100 µM (inactive)
GI50 [30]: 15.5 µM (inactive)
GI50 [31]: > 100 µM (inactive)
GI50 [32]: 84.3 µM (inactive)
GI50 [33]: 25.5 µM (inactive)
GI50 [34]: > 100 µM (inactive)
GI50 [35]: 44.9 µM (inactive)
GI50 [36]: > 100 µM (inactive)
GI50 [37]: > 100 µM (inactive)
GI50 [38]: > 100 µM (inactive)
GI50 [39]: > 100 µM (inactive)
GI50 [40]: 2.29 µM (inactive)
GI50 [41]: > 100 µM (inactive)
GI50 [42]: > 100 µM (inactive)
GI50 [43]: 22 µM (inactive)
GI50 [44]: 76.4 µM (inactive)
GI50 [45]: 49.4 µM (inactive)
GI50 [46]: > 100 µM (inactive)
GI50 [47]: > 100 µM (inactive)
GI50 [48]: > 100 µM (inactive)
GI50 [49]: 27.4 µM (inactive)
GI50 [50]: > 100 µM (inactive)
GI50 [51]: 1.06 µM (active)
GI50 [52]: > 100 µM (inactive)

CNc1cccnc1/C=N/N=C(/N)S
GI50 [1]: 0.38 µM (active)
GI50 [2]: 5.35 µM (inactive)
GI50 [3]: 2.61 µM (inactive)
GI50 [4]: 0.332 µM (active)
GI50 [53]: 1.71 µM (inactive)
GI50 [5]: 3.48 µM (inactive)
GI50 [6]: 0.363 µM (active)
GI50 [7]: 2.13 µM (inactive)
GI50 [54]: 0.685 µM (active)
GI50 [9]: 4.39 µM (inactive)
GI50 [10]: 1.82 µM (inactive)
GI50 [11]: 1.22 µM (inactive)
GI50 [12]: 2.78 µM
GI50 [13]: 0.564 µM (active)
GI50 [14]: 3.11 µM (inactive)
GI50 [55]: 0.849 µM (active)
GI50 [15]: 2.45 µM (inactive)
GI50 [56]: > 10 µM (inactive)
GI50 [16]: > 5.55 µM (inactive)
GI50 [17]: > 4.76 µM (inactive)
GI50 [19]: 4.52 µM (inactive)
GI50 [20]: 2.02 µM (inactive)
GI50 [21]: 1.37 µM (inactive)
GI50 [57]: 0.471 µM (active)
GI50 [58]: 6.38 µM (inactive)
GI50 [59]: 2.41 µM (inactive)
GI50 [60]: 4.69 µM (inactive)
GI50 [23]: 1.5 µM (inactive)
GI50 [24]: 1.95 µM (inactive)
GI50 [25]: 2.75 µM (inactive)
GI50 [26]: 0.403 µM (active)
GI50 [27]: 2.46 µM (inactive)
GI50 [28]: 2.47 µM (inactive)
GI50 [61]: 3.01 µM (inactive)
GI50 [29]: 2.17 µM (inactive)
GI50 [30]: 4.09 µM (inactive)
GI50 [31]: 3.89 µM (inactive)
GI50 [32]: 0.675 µM (active)
GI50 [62]: 1.69 µM (inactive)
GI50 [33]: > 4.59 µM (inactive)
GI50 [34]: 1.15 µM (inactive)
GI50 [35]: 0.612 µM (active)
GI50 [36]: 2 µM (inactive)
GI50 [37]: 0.279 µM (active)
GI50 [38]: 7.74 µM (inactive)
GI50 [39]: 9.89 µM (inactive)
GI50 [40]: 3.2 µM (inactive)
GI50 [41]: 4.49 µM (inactive)
GI50 [42]: 1.33 µM (inactive)
GI50 [43]: > 10 µM (inactive)
GI50 [44]: 0.863 µM (active)
GI50 [46]: > 2.84 µM (inactive)
GI50 [47]: 3.05 µM (inactive)
GI50 [63]: 2.7 µM (inactive)
GI50 [48]: 8.65 µM (inactive)
GI50 [49]: 1.87 µM (inactive)
GI50 [50]: > 10 µM (inactive)
GI50 [51]: 0.379 µM (active)
GI50 [52]: 1.78 µM (inactive)
